The results in this text go back to PubChem BioAssay AID1996.

SMILES strings stand for the structures. Values after ≈ are worked out from the molar mass of the structure shown.

The conditions of the data set: buffer; pH 7.4; 200.0 µM.
In turn, `CN(C(=O)Nc1cnccc1C(F)(F)F)C1CCCCC1` showed a solubility (kinetic) of 41.1 µg/mL (≈ 136 µM).

In the case of `Cc1ccc(N2N=C(C(=O)O)CCC2=O)cc1Cl`, the solubility (kinetic) was above 40 µg/mL.

Consider `O=C(Nc1ccc(Cl)c(Cl)c1)Nc1ccon1`, for which the kinetic solubility was 1.6 µg/mL (≈ 5.88 µM).

Compound `CC(=O)c1cccc(NC2c3ccccc3C(=O)N2Cc2ccco2)c1` (stereo not drawn) registered a solubility (kinetic) of 43.3 µg/mL (≈ 125 µM). Against the preceding compound, the solubility kinetic is about 27-fold higher.

In turn, `CC(C)CNC(=O)COC(=O)Cc1ccc(Cl)cc1` came in with a solubility (kinetic) of 36.1 µg/mL (≈ 127 µM).

In the case of `CCc1ccccc1NC(=O)c1ccc(OCc2c(C)noc2C)cc1`, the kinetic solubility came out at 3.7 µg/mL (≈ 10.6 µM). Against the preceding compound, the solubility kinetic is about 9.8-fold lower.

The compound `O=C(O)c1ccc(N2CCc3ccccc32)c([N+](=O)[O-])c1` returned a kinetic solubility above 42.6 µg/mL.

The compound `Cc1oc(-c2ccoc2)nc1CN(CC1CCC(=O)N1)C(C)C` (stereo not drawn) displayed a kinetic solubility of 38.8 µg/mL (≈ 122 µM).

For the compound `Cl.O=C(NC1CCN(Cc2ccccc2)CC1)c1cccc(S(=O)(=O)Nc2ccc(SC(F)F)cc2)c1`, the kinetic solubility is 31.7 µg/mL.

Take `c1ccc2c(c1)CC1(CCCC1)N=C2N1CCOCC1`: the solubility (kinetic) is 35.5 µg/mL (≈ 131 µM).

As to `O=C(Nc1cccc2c1CCCC2)c1ccccc1Cl`, the kinetic solubility is 1.8 µg/mL (≈ 6.3 µM).

`N#Cc1cnc(Sc2ccccc2)nc1`: the solubility (kinetic) is 26 µg/mL (≈ 122 µM).

Take `Cc1ccc(S(=O)(=O)Cc2ccc([N+](=O)[O-])cc2)cc1`: the kinetic solubility was below 0.6 µg/mL.

`CCc1sc(NC(=O)CN2CCC(C(N)=O)CC2)nc1-c1ccccc1` came in with a kinetic solubility above 55.9 µg/mL.

In turn, `NC(=O)c1cc([N+](=O)[O-])ccc1N1CCN(Cc2ccccc2)CC1` showed a kinetic solubility of 23 µg/mL (≈ 67.6 µM).

The compound `COc1ccc(-c2cc(C(F)(F)F)c(C#N)c(SCC(=O)O)n2)cc1` gave a solubility (kinetic) of 53.6 µg/mL (≈ 146 µM). This solubility kinetic is about 2.3-fold higher than that of the compound before.

`Cc1ccc(S(=O)(=O)N2CCCCC2)cc1NC(=O)CSc1nc(N)cc(=O)[nH]1` displayed a solubility (kinetic) of 52.7 µg/mL (≈ 120 µM). The solubility kinetic values of the last two compounds are within 1.5-fold of each other.

Turning to `COc1ccccc1Sc1nc(-c2ccccc2)ncc1OC`, the solubility (kinetic) is 1.1 µg/mL (≈ 3.39 µM).

With `NC(=O)c1c(NC(=O)c2cccnc2)sc2c1CCCCC2`, the solubility (kinetic) was found to be 6 µg/mL (≈ 19 µM).

The compound `CN(CC(=O)NC(=O)Nc1ccccc1F)Cc1ccccc1F` displayed a kinetic solubility of 2.7 µg/mL (≈ 8.1 µM).

`O=C(Nc1ccc(Cl)cc1)c1ccc(Br)cc1F` yielded a kinetic solubility below 0.7 µg/mL.

`CCCCC(CC)COCCCN=Cc1c(O)[nH]c(=S)[nH]c1=O` (stereo not drawn): the solubility (kinetic) was 4.1 µg/mL (≈ 12 µM).

`Cc1cccc(C2C3=C(CCCC3=O)N=C3c4ccccc4C(=O)C32)c1` (stereo not drawn) yielded a kinetic solubility of 2.3 µg/mL (≈ 6.74 µM).

The compound `CCN(CC)C(=S)SCC(=O)Nc1ncc2c(n1)CCCC2=O` came in with a kinetic solubility of 15.5 µg/mL (≈ 44 µM).

Turning to `Cc1c(C(=O)N2CCC[C@H]2CO)oc2c(F)cccc12`, the kinetic solubility is 37 µg/mL (≈ 133 µM).

As to `CCOC(=O)/C(=C/Nc1ccc(F)cc1)[N+](=O)[O-]`, the solubility (kinetic) was 33.9 µg/mL (≈ 133 µM).

In turn, `CCOc1ccc2cc(S(=O)(=O)N3CCCCC3)ccc2c1` registered a solubility (kinetic) below 0.7 µg/mL.

For the compound `Cc1cc(NC(=O)c2cc(-c3ccc(Br)cc3)on2)no1`, the kinetic solubility was determined as 3 µg/mL (≈ 8.62 µM).

For the compound `CCOc1ccccc1CNc1nc2ccccc2n1C`, the solubility (kinetic) was 5.2 µg/mL (≈ 18.5 µM).

For `Cn1c(=O)c2[nH]c(SCC(=O)c3ccc(F)cc3)nc2n(C)c1=O`, the kinetic solubility worked out at 7.5 µg/mL (≈ 21.5 µM).

For `Cc1cc(/C=C(\C#N)C(=O)N2CCOCC2)c(C)n1C1CCCC1`, the solubility (kinetic) was found to be 32.9 µg/mL (≈ 100 µM).

In turn, `C[C@H](NC(=O)c1ccccc1Cl)C(=O)Nc1ccccc1F` had a solubility (kinetic) above 48.1 µg/mL.

`N#Cc1cnc(N)c(Br)c1` displayed a kinetic solubility of 27.8 µg/mL (≈ 140 µM).

For `CC(OC(=O)c1cccc([N+](=O)[O-])c1)C(=O)N1CCc2ccccc21` (stereo not drawn), the kinetic solubility turned out to be 3.7 µg/mL (≈ 10.9 µM).

`COc1ccccc1CNC(=O)CS(=O)(=O)c1ccc(C)cc1`: the solubility (kinetic) is above 50 µg/mL.

As to `NS(=O)(=O)c1ccc(CNc2ncnc3sccc23)cc1`, the kinetic solubility was above 48.1 µg/mL.

Regarding `O=C(NC1CCN(C(=O)NCc2ccccc2)CC1)c1cccc(F)c1`, the solubility (kinetic) came to 3.4 µg/mL (≈ 9.57 µM).

`CC(C)(C)N1C(=O)NC(=O)/C(=C\c2ccc3c(c2)CCN3CCCCl)C1=O` gave a kinetic solubility of 38 µg/mL (≈ 97.5 µM).

The compound `COC(=O)c1cccc(NC(=O)CN2CCc3ccccc3C2)c1` returned a solubility (kinetic) of 39.6 µg/mL (≈ 122 µM). The solubility kinetic values of the last two compounds are within 1.5-fold of each other.

With `Cc1ccc(OCCCCN2CCc3ccccc3C2)cc1.Cl`, the solubility (kinetic) was found to be 22.8 µg/mL.

Regarding `CCCCC(=O)N(Cc1ccc(F)cc1)C1CCS(=O)(=O)C1` (stereo not drawn), the solubility (kinetic) was determined as 46.9 µg/mL (≈ 143 µM). This solubility kinetic lies about 2.1-fold higher than the previous one.

The compound `Cc1ccc2ncnc(Oc3ncccc3NC(=O)C(C)(C)C)c2c1` returned a kinetic solubility above 50.5 µg/mL.

For `Cc1cc(C)c(NC(=O)C2CC(=O)N(C(C)C)C2)c(C)c1` (stereo not drawn), the solubility (kinetic) is above 43.3 µg/mL.

`Cn1ccnc1C(=O)c1ccccc1Cl` came in with a kinetic solubility above 33.1 µg/mL.

Regarding `O=C1NC(N2CCOCC2)=N/C1=C/c1ccc2c(c1)OCO2`, the kinetic solubility was above 45.2 µg/mL.

The compound `COc1ccccc1OCCn1c(SCC(N)=O)nc2ccccc21` registered a solubility (kinetic) of 45.4 µg/mL (≈ 127 µM).

`Cc1ccccc1OCCCC(=O)NC1CCCCC1` had a kinetic solubility of 3.7 µg/mL (≈ 13.4 µM). Against the preceding compound, the solubility kinetic is about 12-fold lower.

`CCN(CC)c1c([N+](=O)[O-])c(=O)n(C)c2ccccc12` returned a solubility (kinetic) of 24.9 µg/mL (≈ 90.4 µM).

On to `O=C(COC(=O)c1ccc([N+](=O)[O-])o1)NCc1ccc(F)cc1`, for which the solubility (kinetic) is above 48.3 µg/mL.

The compound `O=C(CSc1ccc(F)cc1)N1CCOCC1` displayed a kinetic solubility above 38.3 µg/mL.

`Nc1ccc(-c2nc(-c3ccccc3)nc3ccccc23)cc1` came in with a kinetic solubility of 0.5 µg/mL (≈ 1.68 µM).

Consider `Cc1ccc(NC(=O)/C=C/C(=O)O)c(NC(=O)c2ccccc2)c1`, for which the solubility (kinetic) is above 48.7 µg/mL.

Take `CCn1ccnc1CN1CCCC(C(=O)c2cc(C)c(OC)c(C)c2)C1` (stereo not drawn): the kinetic solubility turned out to be 47.6 µg/mL (≈ 134 µM).

The compound `Cc1ccc(NS(=O)(=O)c2ccc(Cl)s2)nc1` displayed a kinetic solubility of 33.6 µg/mL (≈ 116 µM).

Take `CC(C)(C)c1ccccc1OCC(=O)NCCCn1ccnc1`: the kinetic solubility was above 47.3 µg/mL.

`CCOC(=O)Cc1csc(NS(=O)(=O)c2ccc(C(F)(F)F)cc2)n1` yielded a kinetic solubility above 59.2 µg/mL.

`COc1ccccc1NC(=S)N1CCCc2ccccc21`: the solubility (kinetic) is 22.9 µg/mL (≈ 76.7 µM).

Compound `Cc1cccc(OCC(=O)NCc2ccc(F)cc2)c1` yielded a solubility (kinetic) of 23.4 µg/mL (≈ 85.6 µM). This solubility kinetic and that of the compound before are within 1.5-fold of each other.

Take `O=C(COC(=O)c1ccc(F)cc1F)c1ccc[nH]1`: the kinetic solubility was above 39.8 µg/mL.

Consider `Cc1noc(C)c1S(=O)(=O)Nc1ccccc1N1CCOCC1`, for which the solubility (kinetic) is above 50.6 µg/mL.

Consider `CC(=O)N1CCN(CC(=O)Nc2cc([N+](=O)[O-])ccc2Cl)CC1`, for which the kinetic solubility is 43.4 µg/mL (≈ 127 µM).

In turn, `Cc1ccc(C(=O)N2CCN(c3ncccn3)CC2)c(C)c1` gave a kinetic solubility of 27.5 µg/mL (≈ 92.8 µM).

Turning to `CN(C)c1ccc(/C=C/C(=O)c2ccc3c(c2)OCO3)cc1`, the solubility (kinetic) was determined as 2.9 µg/mL (≈ 9.82 µM).

`CC(C)(C)c1ccc(NC(=S)NCCc2ccccn2)cc1` came in with a kinetic solubility of 5.1 µg/mL (≈ 16.3 µM).

`Cc1ccc(S(=O)(=O)/N=C(/Nc2cccc(O)c2)c2ccccc2)cc1` came in with a solubility (kinetic) above 55 µg/mL.

Consider `CCN(CCO)Cc1cc(=O)oc2cc3c(cc12)CCC3`, for which the kinetic solubility came out at 42.1 µg/mL (≈ 147 µM).

With `O=C(c1ccccc1)N1CCCN(c2nccc(C(F)(F)F)n2)CC1`, the solubility (kinetic) came to 44.8 µg/mL (≈ 128 µM).

Compound `Clc1cc(Cl)cc(CN2CCSCC2)c1` displayed a solubility (kinetic) of 4.5 µg/mL (≈ 17.2 µM).

`NC(=O)c1ccsc1NC(=O)COC(=O)c1cnccn1` came in with a solubility (kinetic) above 45.9 µg/mL.

Compound `O=C1c2ccccc2C(=O)N1CCn1ccnc1` registered a kinetic solubility above 36.2 µg/mL.

As for `CN(Cc1ccccc1)C(=O)c1ccccc1C(=O)OCC(=O)N(Cc1ccccc1)C(C)(C)C`, the kinetic solubility stood at 25.7 µg/mL (≈ 54.4 µM).

In the case of `O=[N+]([O-])c1ccc(Oc2cccc(C(F)(F)F)c2)nc1`, the kinetic solubility came to 3.5 µg/mL (≈ 12.3 µM).

`CC1CCCCC12NC(=O)N(CC(=O)NCc1ccccc1Cl)C2=O` (stereo not drawn) had a solubility (kinetic) above 54.6 µg/mL.

As usually defined, the kinetic solubility is solubility judged after dilution from a stock solution rather than from solid.
